Results reported in US4665022A (priority 1984, dated 1987).
Like-named read-outs stand apart in the source and are kept apart here.

What was measured:
[1] = molecular target: nACh receptors in the cerebral cortex (Rattus norvegicus, UniProt Q05941); experiment: biochemical; type: binding
[2] = molecular target: nicotinic binding sites; design: species or system rat

Sequence of nACh receptors in the cerebral cortex (Q05941 23-502): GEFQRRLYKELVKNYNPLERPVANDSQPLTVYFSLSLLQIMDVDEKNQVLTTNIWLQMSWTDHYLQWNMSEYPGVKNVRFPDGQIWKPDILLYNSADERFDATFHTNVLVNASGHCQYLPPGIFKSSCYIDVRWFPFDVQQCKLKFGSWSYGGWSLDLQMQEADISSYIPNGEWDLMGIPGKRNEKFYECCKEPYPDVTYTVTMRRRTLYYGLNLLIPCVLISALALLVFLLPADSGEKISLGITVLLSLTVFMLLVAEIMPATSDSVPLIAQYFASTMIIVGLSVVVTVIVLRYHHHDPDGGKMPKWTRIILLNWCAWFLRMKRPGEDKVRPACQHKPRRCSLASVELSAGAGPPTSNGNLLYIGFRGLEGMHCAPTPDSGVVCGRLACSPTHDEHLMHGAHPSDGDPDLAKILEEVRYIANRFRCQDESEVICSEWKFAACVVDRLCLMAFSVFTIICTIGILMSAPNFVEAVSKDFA

Molecule	Ki ([1]; read-out: KI)	Ki [2]	Ki [1]
alpha-bungarotoxin	0.00012 µM	0.00013 µM	–
CN1[C@@H]2C[C@@H](OC(=O)[C@H](CO)c3ccccc3)C[C@H]1[C@@H]1O[C@@H]12 [scopolamine]	–	–	> 10000 µM
C[N+](C)(C)CCOC(N)=O [carbamyl choline]	0.2 µM	–	–
COc1cc2c3cc1Oc1cc(ccc1O)C[C@@H]1c4c(cc(OC)c(O)c4Oc4ccc(cc4)C[C@@H]3N(C)CC2)CC[N+]1(C)C [d-tubocurarine]	0.06 µM	–	–
